{
  "source": "paper PMC6424904",
  "about": "“The Utility of Efavirenz-based Prophylaxis Against HIV Infection. A Systems Pharmacological Analysis” (Frontiers in Pharmacology, 2019)",
  "key": {"[1]": {"conditions": "in vivo; cited from earlier work"}, "[2]": {"conditions": "cited from earlier work; for typical population clearance value: 70kg; for typical population clearance value / relative change in apparent oral clearance vs reference genotype: ref Dickinson et al. (2015)"}, "HIV Y181C mutant": {"test_system": "HIV Y181C mutant", "parameters": "method as in Sampah et al., 2011", "conditions": "ref Sampah et al., 2011; cited from earlier work"}, "HIV G190S mutant": {"test_system": "HIV G190S mutant", "parameters": "method as in Sampah et al., 2011", "conditions": "ref Sampah et al., 2011; cited from earlier work"}, "[3]": {"conditions": "no reference given; cited from earlier work"}, "[4]": {"conditions": "human, in vivo", "source_text": "In our work, we modeled metabolic autoinduction similarly to the model proposed by Zhu et al. ([2009]). We defined the term α as the ratio of the mean clearance on day 1 to the mean clearance at steady state (after autoinduction). […] For each virtual patient generated from the population pharmacokinetic model, the individual clearance at steady state was available and the clearance at day 1 was computed using CLi,t0 = α·CLi, SS. Zhu et al. ([2009]) proposed a model for time-dependent autoinduction that we used herein\n(4) CLi(t)=CLi,t0+(CLi,SS-CLi,t0)·t-t0/(t-t0)+T50\nwhere CLi(t) is the individual clearance rate at the time t and t0 is the time of the first EFV dose. CLi(0) and CLi, SS represent the clearance rates at day 1 and at steady state."}, "[5]": {"conditions": "in vivo; cited from earlier work", "remark": "listed apart in the source"}, "HIV K103N mutant": {"test_system": "HIV K103N mutant", "parameters": "method as in Sampah et al., 2011", "conditions": "ref Sampah et al., 2011; cited from earlier work"}, "[6]": {"parameters": "method as in Mukonzo et al., 2009", "conditions": "healthy men, ref Mukonzo et al., 2009, cited from earlier work"}, "[7]": {"conditions": "cited from earlier work"}, "wild-type HIV": {"test_system": "wild-type HIV", "parameters": "method as in Shen et al., 2008", "conditions": "ref Shen et al., 2008, cited from earlier work"}, "[8]": {"test_system": "plasma proteins (human serum albumin and α-1-acid glycoprotein)", "conditions": "cited from earlier work; for unbound fraction in human plasma (fu): ref Almond et al., 2005, Fayet et al., 2008, Burhenne et al., 2010, Avery et al., 2011, 2013a"}, "[9]": {"conditions": "genotype GG/TC or CC/CA or AA/CC"}, "[10]": {"conditions": "genotype GG/TC or CC/CA or AA/CT"}, "[11]": {"conditions": "genotype GG/TC or CC/CC/CT or TT"}, "[12]": {"conditions": "genotype GT/TC or CC/CA or AA/CC"}, "[13]": {"conditions": "genotype GT/TC or CC/CC/CT or TT"}},
  "note": "Read-outs that look alike come from different tables or passages of the source.",
  "data": [
    {"smiles": "O=C1Nc2ccc(Cl)cc2[C@@](C#CC2CC2)(C(F)(F)F)O1", "note": "[efavirenz]", "values": [
      {"measurement": "cervical fluid-to-plasma ratio of total concentrations", "setting": "[1]", "value": 0.4, "unit": "%"},
      {"measurement": "typical population clearance value", "setting": "[2]; Missing genotype", "value": 8.7, "unit": "L/h"},
      {"measurement": "typical population clearance value", "setting": "[2]; [9]", "value": 9.0, "unit": "L/h"},
      {"measurement": "typical population clearance value", "setting": "[2]; [10]", "value": 11.4, "unit": "L/h"},
      {"measurement": "typical population clearance value", "setting": "[2]; genotype GG/TC or CC/CC/CC", "value": 8.7, "unit": "L/h"},
      {"measurement": "typical population clearance value", "setting": "[2]; [11]", "value": 3.5, "unit": "L/h"},
      {"measurement": "typical population clearance value", "setting": "[2]; [12]", "value": 2.2, "unit": "L/h"},
      {"measurement": "typical population clearance value", "setting": "[2]; genotype GT/TC or CC/CC/CC", "value": 5.0, "unit": "L/h"},
      {"measurement": "typical population clearance value", "setting": "[2]; [13]", "value": 4.6, "unit": "L/h"},
      {"measurement": "typical population clearance value", "setting": "[2]; genotype GT/TT/CA or AA/CC", "value": 8.2, "unit": "L/h"},
      {"measurement": "typical population clearance value", "setting": "[2]; genotype GT/TT/CA or AA/CT", "value": 8.4, "unit": "L/h"},
      {"measurement": "typical population clearance value", "setting": "[2]; genotype GT/TT/CC/CC", "value": 8.9, "unit": "L/h"},
      {"measurement": "typical population clearance value", "setting": "[2]; genotype GT/TT/CC/CT or TT", "value": 8.1, "unit": "L/h"},
      {"measurement": "typical population clearance value", "setting": "[2]; genotype TT/TT/CA or AA/CC", "value": 5.2, "unit": "L/h"},
      {"measurement": "typical population clearance value", "setting": "[2]; genotype TT/TT/CA or AA/CT", "value": 8.9, "unit": "L/h"},
      {"measurement": "typical population clearance value", "setting": "[2]; genotype TT/TT/CC/CC", "value": 4.0, "unit": "L/h"},
      {"measurement": "typical population clearance value", "setting": "[2]; genotype TT/TT/CC/CT or TT", "value": 4.1, "unit": "L/h"},
      {"measurement": "relative change in apparent oral clearance vs reference genotype", "setting": "[2]; Missing genotype", "value": 0.73},
      {"measurement": "relative change in apparent oral clearance vs reference genotype", "setting": "[2]; [9]", "value": 0.75},
      {"measurement": "relative change in apparent oral clearance vs reference genotype", "setting": "[2]; [10]", "value": 0.96},
      {"measurement": "relative change in apparent oral clearance vs reference genotype", "setting": "[2]; genotype GG/TC or CC/CC/CC", "value": 0.73},
      {"measurement": "relative change in apparent oral clearance vs reference genotype", "setting": "[2]; [11]", "value": 0.30},
      {"measurement": "relative change in apparent oral clearance vs reference genotype", "setting": "[2]; [12]", "value": 0.18},
      {"measurement": "relative change in apparent oral clearance vs reference genotype", "setting": "[2]; genotype GT/TC or CC/CC/CC", "value": 0.42},
      {"measurement": "relative change in apparent oral clearance vs reference genotype", "setting": "[2]; [13]", "value": 0.39},
      {"measurement": "relative change in apparent oral clearance vs reference genotype", "setting": "[2]; genotype GT/TT/CA or AA/CC", "value": 0.69},
      {"measurement": "relative change in apparent oral clearance vs reference genotype", "setting": "[2]; genotype GT/TT/CA or AA/CT", "value": 0.71},
      {"measurement": "relative change in apparent oral clearance vs reference genotype", "setting": "[2]; genotype GT/TT/CC/CC", "value": 0.75},
      {"measurement": "relative change in apparent oral clearance vs reference genotype", "setting": "[2]; genotype GT/TT/CC/CT or TT", "value": 0.68},
      {"measurement": "relative change in apparent oral clearance vs reference genotype", "setting": "[2]; genotype TT/TT/CA or AA/CC", "value": 0.44},
      {"measurement": "relative change in apparent oral clearance vs reference genotype", "setting": "[2]; genotype TT/TT/CA or AA/CT", "value": 0.75},
      {"measurement": "relative change in apparent oral clearance vs reference genotype", "setting": "[2]; genotype TT/TT/CC/CC", "value": 0.33},
      {"measurement": "relative change in apparent oral clearance vs reference genotype", "setting": "[2]; genotype TT/TT/CC/CT or TT", "value": 0.34},
      {"measurement": "absorption rate constant ka", "setting": "[2]; in vivo", "value": 0.6, "unit": "h⁻¹"},
      {"measurement": "interindividual variability CVIIV(CLss/Fbio)", "setting": "[2]; in vivo", "value": 36.6, "unit": "%"},
      {"measurement": "interoccasion variability CVIOV(CLss/Fbio)", "setting": "[2]; in vivo", "value": 21.0, "unit": "%"},
      {"measurement": "apparent volume of distribution V/Fbio", "setting": "[2]; population mean, 70 kg individual, ref Dickinson et al., 2015", "value": 282, "unit": "L"},
      {"measurement": "apparent oral clearance CL/Fbio (CLss/Fbio)", "setting": "[2]; population value, 70 kg individual, reference (wild-type) CYP genotype, after autoinduction, ref Dickinson et al., 2015", "value": 11.9, "unit": "L/h"},
      {"measurement": "hill coefficient m as multiple of m(wt)", "setting": "HIV Y181C mutant", "value": "0.9·m(wt)"},
      {"measurement": "hill coefficient m as multiple of m(wt)", "setting": "HIV G190S mutant", "value": "0.6·m(wt)"},
      {"measurement": "LogP", "setting": "[3]", "value": "≈ 4"},
      {"measurement": "α, ratio of mean clearance on day 1 to mean clearance at steady state", "setting": "[4]", "value": 0.58},
      {"measurement": "semen-to-plasma ratio of total EFV concentrations", "setting": "[5]", "value": "3.4–5%"},
      {"measurement": "hill coefficient m as multiple of m(wt)", "setting": "HIV K103N mutant", "value": "0.83·m(wt)"},
      {"measurement": "half life", "setting": "[6]; slow metabolisers", "value": 54.7, "unit": "h"},
      {"measurement": "half life", "setting": "[6]; wild type", "value": 37.3, "unit": "h"},
      {"measurement": "T50, time where the clearance rate reaches half of its steady-state value", "setting": "[7]; in vivo", "value": 245, "unit": "h"},
      {"measurement": "average clearance on the first day", "setting": "[7]; ref Zhu et al., 2009", "value": 5.76, "unit": "L/h"},
      {"measurement": "IC50", "setting": "wild-type HIV; corrected for protein binding", "value": 5.4, "unit": "nM"},
      {"measurement": "hill coefficient m (± sd)", "setting": "wild-type HIV", "value": "1.69 (±0.08)"},
      {"measurement": "unbound fraction in human plasma (fu)", "setting": "[8]", "value": "≤ 1", "unit": "%"},
      {"measurement": "unbound fraction in human plasma (fu)", "setting": "[8]; listed as EFV", "value": "< 1", "unit": "%"},
      {"measurement": "fu,plasma used for IC50 correction", "setting": "[8]; value used to obtain IC50plasma", "value": 0.2, "unit": "%"}
    ]}
  ]
}
